Test results taken from paper PMC8112869, “Therapeutic inhibition of keratinocyte TRPV3 sensory channel by local anesthetic dyclonine” (eLife, 2021).

Experiments:
TRPV3 L630W = molecular target: T1, TRPV3 L630W (Mus musculus, UniProt Q8K424, L630W); test: Whole-cell recording of TRPV3 mutant L630W in HEK 293T cells; format: cell-based; conditions: 2-APB (1 mM)-evoked, –60 mV, read-out: IC50 for inhibition of TRPV3 mutant
T1 construct: expressed in transfected cells; host or cells: HEK 293T
Text: (§1) The WT mouse TRPV3 (mTRPV3), human TRPV3 (hTRPV3), rat TRPV1, rat TRPV2, rat TRPM8, and mouse TRPA1 cDNAs were generously provided by Dr. Feng Qin (State University of New York at Buffalo, Buffalo, USA). The GFP-mTRPV3 WT and the mutants (mTRPV3-G573S and mTRPV3-G573C) in pcDNA4/TO vector were gifts from Dr. Michael X Zhu (The University of Texas Health Science Center at Houston, Houston, USA). The WT fTRPV3 was kindly provided by Dr. Makoto Tominaga (Department of Physiological Sciences, SOKENDAI, Okazaki, Japan). All mutations were made using the overlap-extension polymerase chain reaction method as previously described ([Tian et al., 2019]). The resulting mutations were then verified by DNA sequencing. […]
(§2) Conventional whole-cell and excised patch-clamp recording methods were used. […] For a subset of recordings, currents were amplified using an Axopatch 200B amplifier (Molecular Devices, Sunnyvale, CA) and recorded through a BNC-2090/MIO acquisition system (National Instruments, Austin, TX) using QStudio developed by Dr. Feng Qin at State University of New York at Buffalo. […] As determined by the conductance tests, the solution around a patch under study was fully controlled by the application of a flow rate of 100 μl/min or greater. […]

TRPV3 (G573S) = molecular target: T2, TRPV3 (G573S) (Mus musculus, UniProt Q8K424, G573S); test: Whole-cell currents of TRPV3 (G573S) expressed in T-Rex 293 cells; format: cell-based
T2 construct: expressed in transfected cells; host or cells: T-Rex 293
Text: as §1, §2

TRPV3 I637A = molecular target: T3, TRPV3 I637A (Mus musculus, UniProt Q8K424, I637A); test: Whole-cell recording of TRPV3 mutant I637A in HEK 293T cells; format: cell-based; conditions: 2-APB (1 mM)-evoked, –60 mV, read-out: IC50 for inhibition of TRPV3 mutant
T3 construct: expressed in transfected cells; host or cells: HEK 293T
Text: as §1, §2

TRPV1 = molecular target: T4, TRPV1 (Rattus norvegicus, UniProt O35433); test: Whole-cell recording of capsaicin-activated TRPV1 in HEK 293T cells; format: cell-based
T4 construct: expressed in transfected cells; host or cells: HEK 293T
Text: as §1, §2

TRPV2 = molecular target: T5, TRPV2 (Rattus norvegicus, UniProt Q9WUD2); test: Whole-cell recording of 2-APB-activated TRPV2 in HEK 293T cells; format: cell-based
T5 construct: expressed in transfected cells; host or cells: HEK 293T
Text: as §1, §2

C57B/6 mice = test: Carvacrol-induced itch-scratching behavior in mice; format: in vivo, mouse
Description: To assess itch-scratching behaviors, the hair of the rostral part of the mouse’s right neck was shaved using an electric hair clipper 24 hr before the start of experiments. Trpv3^-/- mice have been described previously ([Wang et al., 2021]). Scratching behaviors were recorded on video. The number of itch-scratching bouts was counted through video playback analysis. One scratching bout was defined as an episode in which a mouse lifted its right hind limb to the injection site and scratched continuously for any time length until this limb was returned to the floor or mouth ([Wilson et al., 2013]). All behavioral experiments were conducted in a double-blind manner. […] [Sun and Dong, 2016]).

TRPV3 I659A = molecular target: T6, TRPV3 I659A (Mus musculus, UniProt Q8K424, I659A); test: Whole-cell recording of TRPV3 mutant I659A in HEK 293T cells; format: cell-based; conditions: 2-APB (1 mM)-evoked, –60 mV, read-out: IC50 for inhibition of TRPV3 mutant
T6 construct: expressed in transfected cells; host or cells: HEK 293T
Text: as §1, §2

TRPV3 (G573C) = molecular target: T7, TRPV3 (G573C) (Mus musculus, UniProt Q8K424, G573C); test: Whole-cell currents of TRPV3 (G573C) expressed in T-Rex 293 cells; format: cell-based
T7 construct: expressed in transfected cells; host or cells: T-Rex 293
Text: as §1, §2

[1] = 10 μM dyclonine, –60 mV, leak subtracted with 20 μM RR

T5 sequence (Q9WUD2 whole entry): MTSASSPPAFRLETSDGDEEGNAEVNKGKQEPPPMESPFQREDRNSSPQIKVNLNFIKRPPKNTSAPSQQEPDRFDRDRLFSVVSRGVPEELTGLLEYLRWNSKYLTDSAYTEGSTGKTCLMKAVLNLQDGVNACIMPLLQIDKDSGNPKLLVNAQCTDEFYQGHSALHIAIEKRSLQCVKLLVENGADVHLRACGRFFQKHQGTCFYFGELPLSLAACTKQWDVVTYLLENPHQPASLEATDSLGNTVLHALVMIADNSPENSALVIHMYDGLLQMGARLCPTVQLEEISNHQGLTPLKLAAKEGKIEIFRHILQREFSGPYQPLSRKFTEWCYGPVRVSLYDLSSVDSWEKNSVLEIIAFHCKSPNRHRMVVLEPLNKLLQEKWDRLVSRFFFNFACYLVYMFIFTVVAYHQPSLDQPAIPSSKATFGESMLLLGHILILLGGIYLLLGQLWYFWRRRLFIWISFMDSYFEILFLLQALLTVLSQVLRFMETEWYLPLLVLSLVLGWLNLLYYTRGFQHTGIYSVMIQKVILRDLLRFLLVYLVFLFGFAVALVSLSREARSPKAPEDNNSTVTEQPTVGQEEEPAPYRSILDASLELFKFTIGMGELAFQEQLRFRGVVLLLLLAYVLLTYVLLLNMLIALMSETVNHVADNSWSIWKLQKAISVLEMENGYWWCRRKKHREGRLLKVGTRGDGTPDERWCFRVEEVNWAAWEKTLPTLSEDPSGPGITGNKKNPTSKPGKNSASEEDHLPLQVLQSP
T4 sequence (O35433 whole entry): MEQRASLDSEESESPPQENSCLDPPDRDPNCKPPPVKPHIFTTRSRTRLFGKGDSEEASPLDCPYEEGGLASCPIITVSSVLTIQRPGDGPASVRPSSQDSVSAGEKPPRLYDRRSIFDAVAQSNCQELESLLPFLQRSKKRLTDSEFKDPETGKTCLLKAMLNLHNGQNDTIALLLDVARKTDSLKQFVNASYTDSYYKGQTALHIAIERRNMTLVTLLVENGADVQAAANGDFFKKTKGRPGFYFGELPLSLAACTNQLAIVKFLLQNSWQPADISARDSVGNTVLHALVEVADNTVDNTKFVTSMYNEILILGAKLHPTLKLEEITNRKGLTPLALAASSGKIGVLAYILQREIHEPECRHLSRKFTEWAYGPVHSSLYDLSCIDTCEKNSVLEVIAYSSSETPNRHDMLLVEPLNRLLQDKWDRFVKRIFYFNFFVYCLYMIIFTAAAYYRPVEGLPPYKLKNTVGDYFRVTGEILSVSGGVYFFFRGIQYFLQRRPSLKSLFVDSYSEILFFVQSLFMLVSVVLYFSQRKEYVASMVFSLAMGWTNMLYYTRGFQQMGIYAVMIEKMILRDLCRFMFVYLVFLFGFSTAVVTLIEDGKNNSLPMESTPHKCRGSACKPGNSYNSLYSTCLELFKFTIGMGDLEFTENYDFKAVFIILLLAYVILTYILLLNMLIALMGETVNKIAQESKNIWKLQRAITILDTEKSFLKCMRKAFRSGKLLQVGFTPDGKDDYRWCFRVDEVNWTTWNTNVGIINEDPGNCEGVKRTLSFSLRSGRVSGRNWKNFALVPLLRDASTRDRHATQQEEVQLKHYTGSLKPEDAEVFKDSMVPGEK
T7 sequence (Q8K424 whole entry G573C): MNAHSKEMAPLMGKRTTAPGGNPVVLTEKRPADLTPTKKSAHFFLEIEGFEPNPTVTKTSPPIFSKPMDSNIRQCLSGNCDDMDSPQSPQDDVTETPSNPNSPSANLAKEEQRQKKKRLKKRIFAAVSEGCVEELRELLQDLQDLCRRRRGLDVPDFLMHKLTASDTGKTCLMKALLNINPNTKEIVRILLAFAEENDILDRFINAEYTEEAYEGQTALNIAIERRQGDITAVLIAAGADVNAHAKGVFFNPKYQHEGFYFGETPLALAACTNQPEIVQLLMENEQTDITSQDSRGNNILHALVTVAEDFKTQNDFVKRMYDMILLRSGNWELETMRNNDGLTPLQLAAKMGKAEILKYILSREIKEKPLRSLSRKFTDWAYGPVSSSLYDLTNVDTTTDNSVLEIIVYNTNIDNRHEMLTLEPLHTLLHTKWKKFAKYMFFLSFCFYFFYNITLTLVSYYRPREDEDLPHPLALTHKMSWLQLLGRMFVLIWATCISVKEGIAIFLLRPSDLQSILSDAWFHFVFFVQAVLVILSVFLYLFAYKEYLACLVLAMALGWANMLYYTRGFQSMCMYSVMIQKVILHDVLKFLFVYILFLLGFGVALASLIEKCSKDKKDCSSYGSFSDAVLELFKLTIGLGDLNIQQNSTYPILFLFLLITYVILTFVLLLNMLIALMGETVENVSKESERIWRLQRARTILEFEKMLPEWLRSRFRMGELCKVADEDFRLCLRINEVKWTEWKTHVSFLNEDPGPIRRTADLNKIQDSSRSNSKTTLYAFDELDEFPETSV
T2 sequence (Q8K424 whole entry G573S): as the sequence (Q8K424 whole entry G573C) above, with C573S counted along it
T3 sequence (Q8K424 whole entry I637A): as the sequence (Q8K424 whole entry G573C) above, with C573G, I637A counted along it
T1 sequence (Q8K424 whole entry L630W): as the sequence (Q8K424 whole entry G573C) above, with C573G, L630W counted along it
T6 sequence (Q8K424 whole entry I659A): as the sequence (Q8K424 whole entry G573C) above, with C573G, I659A counted along it

IC50 (TRPV3 L630W): 30.8 ± 2.2 µM
reduction of spontaneous activities (TRPV3 (G573S); [1]): 74% ± 3%
300 μM 2-APB-evoked responses, of control level (TRPV3 (G573S); presence of dyclonine): 10% ± 2%
IC50 (TRPV3 I637A): 6.1 ± 0.43 µM
Hill coefficient nH (TRPV1): 2.0 ± 0.31
reduction in current amplitude (TRPV1; 10 μM dyclonine, capsaicin-activated): 2% ± 1%
Hill coefficient nH (TRPV2): 2.9 ± 0.50
reduction in current amplitude (TRPV2; 10 μM dyclonine, 2-APB-activated): 6% ± 1%
IC50 (TRPV3 I659A): 0.56 ± 0.06 µM
reduction of spontaneous activities (TRPV3 (G573C); [1]): 71% ± 2%
300 μM 2-APB-evoked responses, of control level (TRPV3 (G573C); presence of dyclonine): 11% ± 1%
Structure (SMILES): CCCCOc1ccc(C(=O)CCN2CCCCC2)cc1 [dyclonine]
scratching bouts over 30 min (C57B/6 mice; 50 μl dyclonine 1 μM intradermal 30 min before carvacrol (0.1%, 50 μl)): 130.0 ± 20.3
scratching bouts over 30 min (C57B/6 mice; 50 μl dyclonine 10 μM intradermal 30 min before carvacrol (0.1%, 50 μl)): 82.0 ± 15.0
scratching bouts over 30 min (C57B/6 mice; 50 μl dyclonine 50 μM intradermal 30 min before carvacrol (0.1%, 50 μl)): 18.0 ± 8.0
